# Test results published in paper PMC12186255, “Discovery and Characterization of Small Molecule Inhibitors Targeting Exonuclease 1 for Homologous Recombination-Deficient Cancer Therapy” (ACS Chemical Biology, 2025).
# Entries after “also recorded” stand apart in the source; their conditions may differ.
# How the values were obtained:
# EXO1 = target: T1, EXO1 (Homo sapiens, UniProt Q9UQ84); assay: Thermal shift assay; assay type: binding; conditions: maximum shift in Tm of EXO1 vs DMSO, increasing inhibitor concentrations
# T1 construct: made in house
# T1 sequence (Q9UQ84 1-846): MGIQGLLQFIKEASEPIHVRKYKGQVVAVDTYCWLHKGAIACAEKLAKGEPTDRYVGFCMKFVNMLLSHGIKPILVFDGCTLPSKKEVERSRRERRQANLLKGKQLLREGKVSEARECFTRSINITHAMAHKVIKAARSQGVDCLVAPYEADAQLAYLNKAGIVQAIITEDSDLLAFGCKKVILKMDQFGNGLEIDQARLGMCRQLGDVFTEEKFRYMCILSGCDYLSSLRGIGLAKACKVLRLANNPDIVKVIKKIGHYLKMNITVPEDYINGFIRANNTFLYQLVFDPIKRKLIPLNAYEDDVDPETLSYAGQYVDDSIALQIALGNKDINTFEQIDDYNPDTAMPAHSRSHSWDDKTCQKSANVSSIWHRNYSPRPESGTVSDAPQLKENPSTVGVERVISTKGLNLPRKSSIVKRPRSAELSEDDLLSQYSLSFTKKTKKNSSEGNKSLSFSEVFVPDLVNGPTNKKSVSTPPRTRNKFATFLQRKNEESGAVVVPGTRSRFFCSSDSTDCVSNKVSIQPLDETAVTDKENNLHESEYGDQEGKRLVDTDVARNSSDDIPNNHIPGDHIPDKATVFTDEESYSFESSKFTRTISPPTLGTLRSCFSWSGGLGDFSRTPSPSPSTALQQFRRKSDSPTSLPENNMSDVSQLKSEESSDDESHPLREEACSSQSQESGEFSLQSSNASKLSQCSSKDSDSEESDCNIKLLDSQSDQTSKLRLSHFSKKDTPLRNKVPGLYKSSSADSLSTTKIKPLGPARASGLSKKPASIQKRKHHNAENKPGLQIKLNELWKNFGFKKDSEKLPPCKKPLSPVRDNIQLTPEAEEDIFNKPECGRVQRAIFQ
# Protocol: To assess for changes in the thermal stability of EXO1 protein in response to treatment with candidate small molecule inhibitors or DMSO (vehicle control), the thermal shift assay (Applied Biosystems Protein Thermal Shift Dye Kit, Cat. #4461146) was utilized. The protein melt reaction mix consisted of freshly prepared 10× thermal shift dye, purified EXO1 enzyme (1 μg/uL), thermal shift buffer, DMSO or inhibitors, and sterilized Milli-Q water. A drug-free supermix was premade and dispensed in 96-well PCR plates followed by the addition of DMSO or inhibitors with increasing concentration. The reaction plate was heated from 10 to 98 °C at a rate of 0.5° per 10 s cycle, and the fluorescence intensity of individual wells was measured at 490/530 nm using a BioRad CFX96 Touch Real-Time PCR System. The fluorescence measurements of three technical replicates per treatment condition were then averaged to calculate melting temperature shift (ΔT m) as a readout for compound binding affinity.
# EXO1 E89A = target: T2, EXO1 E89A (Homo sapiens, UniProt Q9UQ84, E89A); assay: In vitro exonuclease activity of mutant with inhibitors; assay type: biochemical; conditions: EXO1 25 nM, DNA substrate 250 nM
# T2 construct: The N-terminal domain of human EXO1 (hEXO1) (residues 1–345) was cloned into the pET28b vector; made in house; host or cells: E. coli BL21(DE3) and Rosetta 2(DE3)
# Protocol: (§1) Simultaneously, we tested the effect of each point mutation on the in vitro exonuclease activity. Most mutations in site 1 result in some loss of enzymatic activity compared to WT EXO1 (Figure S13; WT:Figure S13a), particularly K85A and D225A (Figure S13b,f). […] However, at concentrations of 20 and 40 μM, the mutants (K85A and R92A) behaved more like WT (Figure b).
# (§2) In both panels a and b, DMSO without inhibitors was used as a control, and its relative binding activity was set equal to 1.0. The EXO1 enzyme concentration was 25 nM, and the DNA substrate concentration was 250 nM. The values shown are the mean ± S.D. of three independent experiments.
# (§3) The N-terminal domain of human EXO1 (hEXO1) (residues 1–345) was cloned into the pET28b vector. The following mutations were introduced via site-directed mutagenesis based on the findings of molecular docking analysis: K85A, E89A, R92A, I125A, D225A, K292A, and K294A (oligonucleotide primers listed in Table S1) following the established protocol.
# EXO1 I125A = target: T3, EXO1 I125A (Homo sapiens, UniProt Q9UQ84, I125A); assay: as above; assay type: biochemical; conditions: EXO1 25 nM, DNA substrate 250 nM
# T3 construct: The N-terminal domain of human EXO1 (hEXO1) (residues 1–345) was cloned into the pET28b vector; made in house; host or cells: E. coli BL21(DE3) and Rosetta 2(DE3)
# Protocol: as §1, §2, §3
# EXO1 D225A = target: T4, EXO1 D225A (Homo sapiens, UniProt Q9UQ84, D225A); assay: as above; assay type: biochemical; conditions: EXO1 25 nM, DNA substrate 250 nM; C200 0-5 μM
# T4 construct: The N-terminal domain of human EXO1 (hEXO1) (residues 1–345) was cloned into the pET28b vector; made in house; host or cells: E. coli BL21(DE3) and Rosetta 2(DE3)
# Protocol: as §1, §2, §3
# [1] = test system: MDA-MB-436 (BRCA1−) and MDA-MB-436 (BRCA1+) cells; assay: Annexin V apoptosis assay; assay type: cell-based, human; conditions: 5 days of treatment
# Protocol: After 24 h of incubation, testing compounds were added to cells at final concentrations of 50, 25, 12, and 5 μM using the Echo Liquid Handler (Beckman). Subsequently, 10 μL of the NIR-labeled Annexin V apoptosis reagent (Cat. #4768, Sartorius, Germany) was added to each well at a 1:200 final dilution. The plates were then transferred to the Incucyte Live-Cell Analysis System for real-time apoptosis monitoring over a 5 day period. Imaging was conducted using a 10× objective with phase-contrast and near-infrared (NIR) fluorescent channels, capturing scans every 2 h. Image analysis was performed with the Incucyte software, and the total NIR fluorescence intensity was quantified to evaluate the apoptosis.
# [2] = test system: MDA-MB-436 (BRCA1−) and MDA-MB-436 (BRCA1+) cells; assay: In vitro cell survival assay (cell counting); assay type: cell-based, human; conditions: 1-50 μM F684, 5 days
# Protocol: For this assay, 10,000 cells were seeded per well in a 24-well plate and incubated in a complete culture medium containing DMSO or the EXO1i of interest at 37 °C with 5% CO2. The medium was refreshed every 3 to 4 days by replacing it with a fresh medium containing DMSO or EXO1i. After 5 days, the cells were trypsinized, and the survival curve was generated by manual cell counting.
# T4 sequence (Q9UQ84 1-345 D225A): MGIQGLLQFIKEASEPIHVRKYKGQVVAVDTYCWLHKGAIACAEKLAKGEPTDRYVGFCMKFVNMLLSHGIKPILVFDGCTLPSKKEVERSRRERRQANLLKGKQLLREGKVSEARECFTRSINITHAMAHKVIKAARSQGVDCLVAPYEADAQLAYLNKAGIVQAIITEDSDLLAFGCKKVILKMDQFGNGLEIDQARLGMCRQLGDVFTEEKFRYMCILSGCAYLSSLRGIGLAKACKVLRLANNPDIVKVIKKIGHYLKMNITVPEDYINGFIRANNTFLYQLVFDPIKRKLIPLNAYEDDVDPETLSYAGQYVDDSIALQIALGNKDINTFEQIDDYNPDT
# T2 sequence (Q9UQ84 1-345 E89A): as the sequence (Q9UQ84 1-345 D225A) above, with E89A, A225D counted along it
# T3 sequence (Q9UQ84 1-345 I125A): as the sequence (Q9UQ84 1-345 D225A) above, with I125A, A225D counted along it
Compound,ΔT m (EXO1) [°C],inhibitory activity against EXO1 E89A mutant vs WT (EXO1 E89A),inhibitory activity against EXO1 I125A mutant vs WT (EXO1 I125A),inhibitory activity against EXO1 D225A mutant vs WT (EXO1 D225A),"apoptosis (Annexin V fluorescence intensity), BRCA1− vs BRCA1+ [1]","cell killing (survival), BRCA1– vs BRCA1+ cells [2]"
COC(=O)c1nc(-c2ccc(OC)cc2)nc(O)c1O [C200],~1,did not have a significant,did not have a significant,partially lost its inhibitory effect; also recorded: abolished,–,–
Cc1cccc(N2CCN(c3ccc(NS(=O)(=O)c4ccccc4)c(C(=O)O)c3)CC2)c1C [F684],–,–,–,–,substantially stronger killing effect in a BRCA1– context,more effective in killing BRCA1– cells compared to BRCA1+ cells
